Assay results: ChEMBL document CHEMBL4706603, “Discovery of VEGFR-2 inhibitors exerting significant anticancer activity against CD44+ and CD133+ cancer stem cells (CSCs): Reversal of TGF-β induced epithelial-mesenchymal transition (EMT) in hepatocellular carcinoma” (Eur J Med Chem, 2020)
Active and inactive are the calls of the source. No cut-off for these calls is given here.

Columns and labels:
[1] = Toxicity in Wistar rat assessed as effect on relative weight of spleen at 5 to 2000 mg/kg, po and measured on day 15; format: organism-based; conditions: in vivo, 360 h, dose 5-2000 mg/kg, time 15 day
[2] = Cmax in Wistar rat at 5 mg/kg, po measured upto 72 hrs by HPLC-MS analysis; format: ADME, organism-based; design: route oral, dose 5 mg/kg, time <=72; conditions: in vivo
HepG2 [3] = assay: Induction of DNA damage in human HepG2 cells assessed as increase in length of comet tail with decrease in nuclear DNA content with complete DNA damage at IC50 incubated for 24 hrs by Comet assay; format: functional, cell-based
[4] = Toxicity in Wistar rat assessed as effect on water consumption at 5 to 2000 mg/kg, po and observed for 14 days; format: organism-based; conditions: in vivo, 336 h, dose 5-2000 mg/kg, time 14 day
[5] = Toxicity in Wistar rat assessed as effect on total bilirubin level in serum at 5 to 2000 mg/kg, po and measured on day 15; format: organism-based; conditions: in vivo, 360 h, dose 5-2000 mg/kg, time 15 day
MCF7 = assay: Cytotoxicity against human MCF7 cells assessed as reduction in cell viability incubated for 24 hrs by MTT assay; format: functional, cell-based
[6] = AUC (0 to infinity) in Wistar rat at 5 mg/kg, po by HPLC-MS analysis; format: ADME, organism-based; design: route oral, time infinity, dose 5 mg/kg; conditions: in vivo
MDA-MB-231 [7] = assay: Cytotoxicity against human MDA-MB-231 cells assessed as reduction in cell viability by trypan blue assay; format: functional, cell-based
MDA-MB-231 [8] = assay: Induction of apoptosis in human MDA-MB-231 cells assessed as early apoptotic cells at IC50 incubated for 72 hrs by Alexa Fluor488-annexin V/PI staining based flow cytometric analysis (Rvb= 0.6 %); format: functional
[9] = Toxicity in Wistar rat assessed as effect on urea level in serum at 5 to 2000 mg/kg, po and measured on day 15; format: organism-based; conditions: in vivo, 360 h, dose 5-2000 mg/kg, time 15 day
[10] = Toxicity in Wistar rat assessed as normal histoarchitecture of alveoli and bronchi in lungs without inflammatory or pathological changes at 2000 mg/kg, po and measured on day 15 by microscopic analysis; format: organism-based; conditions: in vivo, 360 h, time 15 day
HepG2 [11] = assay: Induction of apoptosis in human HepG2 cells assessed as apoptotic index at IC50 incubated for 24 hrs by EtBr/AO staining based fluorescence microscopic analysis (reference value: 1.99 %); format: functional
[12] = Toxicity in Wistar rat assessed as effect on uric acid level in serum at 5 to 2000 mg/kg, po and measured on day 15; format: organism-based; conditions: in vivo, 360 h, dose 5-2000 mg/kg, time 15 day
[13] = Toxicity in female Wistar rat assessed as roughened fur at 2000 mg/kg, po observed for 48 hrs; format: organism-based; conditions: in vivo
[14] = AUC (0 to 72 hrs) in Wistar rat at 5 mg/kg, po measured upto 72 hrs by HPLC-MS analysis; format: ADME, organism-based; design: route oral, dose 5 mg/kg, time <=72; conditions: in vivo
[15] = Toxicity in female Wistar rat assessed as periodic body stretching at 2000 mg/kg, po observed for 48 hrs; format: organism-based; conditions: in vivo
[16] = Toxicity in Wistar rat assessed as effect on relative weight of kidney at 5 to 2000 mg/kg, po and measured on day 15; format: organism-based; conditions: in vivo, 360 h, dose 5-2000 mg/kg, time 15 day
[17] = Toxicity in Wistar rat assessed as effect on creatinine level in serum at 5 to 2000 mg/kg, po and measured on day 15; format: organism-based; conditions: in vivo, 360 h, dose 5-2000 mg/kg, time 15 day
[18] = Toxicity in Wistar rat assessed as effect on food consumption at 5 to 2000 mg/kg, po and observed for 14 days; format: organism-based; conditions: in vivo, 336 h, dose 5-2000 mg/kg, time 14 day
[19] = Tmax in Wistar rat at 5 mg/kg, po measured upto 72 hrs by HPLC-MS analysis; format: ADME, organism-based; conditions: in vivo
[20] = Toxicity in Wistar rat assessed as normal splenic tissue with normal red and white pulp with lymphoid cellular population at 2000 mg/kg, po and measured on day 15 by microscopic analysis; format: organism-based; conditions: in vivo, 360 h, time 15 day
MDA-MB-231 [21] = assay: Induction of apoptosis in human MDA-MB-231 cells assessed as viable cells at IC50 incubated for 72 hrs by Alexa Fluor488-annexin V/PI staining based flow cytometric analysis (Rvb= 99.4 %); format: functional
[22] = Toxicity in Wistar rat assessed as effect on body weight at 5 to 300 mg/kg, po and observed for 14 days; format: organism-based; conditions: in vivo, 336 h, dose 5-300 mg/kg, time 14 day
Chorioallantoic membrane = assay: Antiangiogenic activity in chicken fertilized egg chorioallantoic membrane assessed as reduction in membrane growth at 0.01 uM measured upto 72 hrs by CAM assay relative to control; format: functional, tissue-based; conditions: Gallus gallus, time hrs <=72
HUVEC [23] = assay: Induction of apoptosis in human HUVEC assessed as late apoptotic cells at IC50 incubated for 48 hrs by annexin V-FITC and PI staining based flow cytometry; format: functional
HepG2 [24] = assay: Inhibition of epithelial-mesenchymal transition in TGF-beta-induced human HepG2 cells assessed as vimentin expression at IC50 incubated for 48 hrs by flow cytometry analysis (reference value: 98.19 %); format: functional; design: scale not given: the % may be the effect or the level left
HepG2 [25] = assay: Inhibition of epithelial-mesenchymal transition in TGF-beta-induced human HepG2 cells assessed as SNAIL expression at IC50 incubated for 48 hrs by flow cytometry analysis (reference value: 97.78 %); format: functional; design: scale not given: the % may be the effect or the level left
[26] = Toxicity in Wistar rat assessed as normal cardiac muscles and cardiac fibers with intact length without inflammatory changes at 2000 mg/kg, po and measured on day 15 by microscopic analysis; format: organism-based; conditions: in vivo, 360 h, time 15 day
HUVEC [27] = assay: Induction of apoptosis in human HUVEC assessed as early apoptotic cells at IC50 incubated for 48 hrs by annexin V-FITC and PI staining based flow cytometry (reference value: <1%); format: functional
[28] = Toxicity in Wistar rat assessed as normal renal parenchyma with intact renal tubules and glomeruli without inflammatory or pathological changes at 2000 mg/kg, po and measured on day 15 by microscopic analysis; format: organism-based; conditions: in vivo, 360 h, time 15 day
[29] = Inhibition of VEGF expression in human HUVEC at IC50 incubated for 48 hrs by FITC based flow cytometry analysis relative to control; format: functional
[30] = Half life in Wistar rat at 5 mg/kg, po measured upto 72 hrs by HPLC-MS analysis; format: ADME, organism-based; conditions: in vivo
HepG2 [31] = assay: Induction of apoptosis in human HepG2 cells assessed as blebbing of nucleus by measuring orange coloured fluorescence at IC50 incubated for 24 hrs by EtBr/AO staining based fluorescence microscopic analysis; format: functional, cell-based
MDA-MB-231 [32] = assay: Induction of apoptosis in human MDA-MB-231 cells assessed as late apoptotic cells at IC50 incubated for 72 hrs by Alexa Fluor488-annexin V/PI staining based flow cytometric analysis (Rvb= 0.0 %); format: functional
[33] = Inhibition of VEGFR2 expression in human HUVEC at IC50 incubated for 48 hrs by fluorescence microscopic analysis relative to control; format: functional
MDA-MB-231 [34] = assay: Cytotoxicity against human MDA-MB-231 cells assessed as reduction in cell viability incubated for 24 hrs by MTT assay; format: functional, cell-based
[35] = MRT in Wistar rat at 5 mg/kg, po measured upto 72 hrs by HPLC-MS analysis; format: ADME, organism-based; conditions: in vivo
[36] = Toxicity in Wistar rat assessed as mortality of organism at 5 to 2000 mg/kg, po and observed for 14 days; format: organism-based; conditions: in vivo, 336 h, dose 5-2000 mg/kg, time 14 day
HepG2 [37] = assay: Induction of apoptosis in human HepG2 cells assessed as necrotic cells by measuring orange-red coloured flourescence at IC50 incubated for 24 hrs by EtBr/AO staining based fluorescence microscopic analysis; format: functional, cell-based

With `CC(=O)Nc1ccc(Oc2cccc3c(NC(=O)Nc4cccc(C(F)(F)F)c4)cccc23)cc1` the Activity [1] was “Non-Toxic”, the Cmax [2] was 39700 ng/mL and the Activity (HepG2 [3]) was “Active”. The Activity [4] was “Non-Toxic”, the Activity [5] was “Non-Toxic” and the inhibition (MCF7) was “Dose-dependent effect”. The AUC(0-inf) [6] was 625 µg·h/mL, the IC50 (MDA-MB-231 [7]) was 3580 nM and the inhibition (MDA-MB-231 [7]) was “Dose-dependent effect”. For the same molecule, the Activity (MDA-MB-231 [8]) was 68.2%, the Activity [9] was “Non-Toxic” and the Activity [10] was “Non-Toxic”. For the same molecule, the Activity (HepG2 [11]) was 86.66%, the Activity [12] was “Non-Toxic” and the Activity [13] was “Toxic”. For the same molecule, the AUC(0-t) [14] was 621 µg·h/mL, the Activity [15] was “Toxic” and the Activity [16] was “Non-Toxic”. For the same molecule, the Activity [17] was “Non-Toxic”, the Activity [18] was “Non-Toxic” and the Tmax [19] was 6 h. The Activity [20] was “Non-Toxic”, the Activity (MDA-MB-231 [21]) was 27.3% and the Activity [22] was “Non-Toxic”. The inhibition (Chorioallantoic membrane) was greater than 50%, the Activity (HUVEC [23]) was 6.09% and the Activity (HepG2 [24]) was 20.44%. For the same molecule, the Activity (HepG2 [25]) was 10.26%, the Activity [26] was “Non-Toxic” and the Activity (HUVEC [27]) was 37.53%. The Activity [28] was “Non-Toxic”, the “fold change (FC)” value [29] was 0.39 and the half-life [30] was 11.9 h. The Activity (HepG2 [31]) was “Active”, the Activity (MDA-MB-231 [32]) was 4.3% and the “fold change (FC)” value [33] was 0.37. For the same molecule, the inhibition (MDA-MB-231 [34]) was “Dose-dependent effect”, the IC50 (MDA-MB-231 [34]; MDA-MB-231, 24 h) was 1410 nM and the MRT [35] was 14.3 h. The Activity [36] was “Non-Toxic” and the Activity (HepG2 [37]) was “Active”.
